From patent publication US8709764B2, “Enzymatic demethylation of flavonoids” (Universiteit Gent, priority 2005, dated 2014)

Columns and labels:
[1] = rats, 1000 mg/kg body weight of X; cited from earlier work
[2] = Incubation of X or IX with human fecal cultures A-D for 8 days, conversion products detected by HPLC; type: in vitro ADME; conditions: human, 25 mg/l substrate, 8 days anaerobic, average (stdev) molar percentage relative to dosed flavonoid
Protocol: (§1) Fecal slurries of 20% (w/v) fresh fecal samples were prepared by homogenizing the feces with phosphate buffered saline (0.1 M, pH 7) containing 1 g/l sodiumthioglycolate as reducing agent. The particulate material was removed by centrifugation (1 min, 500×g). The supernatant is hereafter called “the culture”.
(§2) The capacity of the cultures obtained from fecal samples A, B, C and D (further referred as cultures A-D) to degrade or transform the hop prenylflavonoid IX was tested by incubating the fecal cultures (10% (v/v)) in Brain Heart Infusion broth (with 0.5 g/l cystein-HCl) with 25 mg/l of isoxanthohumol for a period of 8 days under anaerobic conditions. Extracts of the incubations at days 0 and 8 were assayed for bioactive transformation products of IX using a Yeast Estrogenic Screen, according to De Boever et al. (2001) Env. Health Perspectives 109, 691-697, based on Routledge & Sumpter (1996) Environ. Toxicol. Chem. 15, 241-248. In brief, Saccharomyces cerevisiae, was transformed with the human estrogen receptor (ERα) gene, together with expression plasmids containing responsive elements and the lacZ reporter gene (encoding the enzyme β-galactosidase). β-galactosidase activity is quantified at 540 nm by the conversion of the chromogenic substance chlorophenol red-β-D-galactopyranoside into chlorophenol red. The bioassay response is expressed as the absorbance at 540 nm divided by the optical density at 630 nm [(A540/A630)net]. The estrogenic activity of the samples was expressed as percentage equivalence to 10 nM estradiol (E2) which elicited a 100% response in the estrogen receptor bioassay. The bioassays were performed in 96-well plates in which 10 μL of the test compounds were tested and incubated with 240 μL of the genetically modified yeast (optical density of 0.25 at 610 nm). Serial dilutions of the test compounds were made in dimethylsulfoxide, which allowed generating dose-response curves for […]. The data were fitted by a 4 parametric logistic model using the Marquardt-Levenberg algorithm (Sigmaplot 4.0, SPSS Inc., Chicago, Ill., USA) (De Boever et al. (2001) Env. Health Perspectives 109, 691-697).
(§3) To further test this transformation, cultures A-D (10% (v/v)) were incubated for 8 days in Brain Heart Infusion broth (with 0.5 g/l cystein-HCl) with either X or IX at a concentration of 25 mg/l under anaerobic conditions and conversion products were detected by HPLC (Table 1). […] However, in culture C almost 40% of 8-PN was recovered, which explains the increase in estrogenic properties of culture C.

human fecal cultures = experiment: as above; type: in vitro ADME; conditions: all fecal samples A-D, also with autoclaved cultures (non-enzymatic isomerisation)
Protocol: as §1, §2, §3

[3] = test system: fecal culture B supplemented with E. limosum; experiment: Supplementation of selected E. limosum strain to non-converting fecal culture B incubated with IX; type: in vitro ADME, human; conditions: 8-PN concentration day one versus day seven
Protocol: The most efficient E. limosum strain, obtained from the selection experiment in example 2, was supplemented to the originally non-converting culture B of example 1, to examine the capacity of this strain to initiate the production of 8-PN in the complex environment of a fecal suspension. The strain was added to the culture in proportions ranging from 0% up to 100% (v/v). This mixture was incubated with 10% (v/v) of 25 mg/L IX for a period of seven days in Brain Heart Infusion broth (with 0.5 g/l cystein-HCl) under anaerobic conditions. The concentration of 8-PN was monitored every two days (FIG. 7).

[4] = test system: Eubacterium limosum ATCC 8486; experiment: Incubation of IX and 8-PN with Eubacterium limosum for 13 days; type: in vitro ADME; conditions: E. limosum, 8-PN as substrate, 13 days
Protocol: Eubacterium limosum ATCC 8486 and Peptostreptococcus productus ATCC 27340 were obtained from the German Collection of Microorganisms and Cell Cultures (DSMZ, Braunschweig, Germany). E. limosum was incubated for 13 days in Brain Heart Infusion broth (with 0.5 g/l cystein-HCl) with 25 mg/l of IX and 8-PN under anaerobic conditions (Table 2). This strain was able to convert IX into 8-PN. […] This feature is clearly different from the metabolic pathway as observed in liver microsomes wherein 8-PN is extensively further metabolised [Nikolic et al. (2005) J. of Mass Spectrom. 40, 289-299; Nikolic et al. (2004) Drug Metabolism and Disposition 32, 272-279].

[5] = cited from earlier work

SMILES | Share of recovered flavonoids in feces that was unchanged X [1] [%] | recovery at 8 days, 25 mg/l ([2]; human fecal culture A (10% v/v), fecal Sample A) [%] | recovery at 8 days, 25 mg/l ([2]; human fecal culture B (10% v/v), fecal Sample B) [%] | recovery at 8 days, 25 mg/l ([2]; human fecal culture C (10% v/v), fecal Sample C) [%] | recovery at 8 days, 25 mg/l ([2]; human fecal culture D (10% v/v), fecal Sample D) [%] | Conversion of X to IX (human fecal cultures) | Further conversion of 8-PN [3] | Further degradation of 8-PN [4] | Concentration needed for harmful in-vivo activity [5] [µg/mL]
COc1cc(O)c(CC=C(C)C)c(O)c1C(=O)/C=C/c1ccc(O)cc1 [X, 2′,4,4′-trihydroxy-3′-prenyl-6′-methoxychalcone] | 89 | 74.9 | 80.5 | 73.6 | 65.4 | slightly converted to IX | – | – | –
CC(C)=CCc1c(O)cc(O)c2c1O[C@H](c1ccc(O)cc1)CC2=O [8-PN, 8-prenylnaringenin] | – | – | – | – | – | – | No further conversion of 8-PN was detected | did not further degrade 8-PN | ~100
